This note sets out measurements from BindingDB's records for doi:10.1021/bi900167q (Duke University, 2009).

pIC50: −log10 of the molar value.

The target of this test is T1, UDP-3-O-acyl-N-acetylglucosamine deacetylase (Escherichia coli (strain K12), UniProt P0A725).
T1 sequence (P0A725 whole entry): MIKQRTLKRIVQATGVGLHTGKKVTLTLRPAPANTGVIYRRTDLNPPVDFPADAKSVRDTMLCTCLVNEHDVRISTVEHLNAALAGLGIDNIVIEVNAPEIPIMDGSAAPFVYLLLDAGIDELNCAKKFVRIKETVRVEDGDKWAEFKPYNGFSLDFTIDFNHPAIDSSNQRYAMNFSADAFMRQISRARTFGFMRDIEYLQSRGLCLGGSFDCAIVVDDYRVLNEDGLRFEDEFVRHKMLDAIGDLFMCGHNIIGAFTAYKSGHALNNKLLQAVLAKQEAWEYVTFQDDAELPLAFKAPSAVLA
The test can be described thus: LpxC Assay. From the text: Inhibition assay using E. coli LpxC.

A word on the pIC50: it is the IC50 on a negative log10 scale, so that one unit is a factor of ten. Turning to `O=c1ccn(C2OC(CO/N=C/c3ccc(O)c(O)c3O)C(O)C2O)c(=O)[nH]1` (stereo not given) [1-68A analogue], the pIC50 was 4.57.
The figure for `O=c1ccn(C2OC(CO/N=C/c3ccc(O)c(O)c3)C(O)C2O)c(=O)[nH]1` (stereo not given) [1-68Aa analogue] is 4.52; for `O=c1ccn(C2OC(CO/N=C/c3cccc(O)c3O)C(O)C2O)c(=O)[nH]1` (stereo not given) [1-68Ac analogue] it is less than 3.30.
The figure for `O=c1ccn(C2OC(CO/N=C/c3cc(O)c(O)c(O)c3)C(O)C2O)c(=O)[nH]1` (stereo not given) [1-68Ad analogue] is less than 3.30.
The figure for `O=C(CO/N=C/c1ccc(O)c(O)c1O)NCC1OC(n2ccc(=O)[nH]c2=O)C(O)C1O` (stereo not given) [2-68A analogue] is 3.92.
